Reference: ChEMBL document CHEMBL4028847, “Perspectives of Cannabinoid Type 2 Receptor (CB2R) Ligands in Neurodegenerative Disorders: Structure-Affinity Relationship (SAfiR) and Structure-Activity Relationship (SAR) Studies” (J Med Chem, 2017)

How the values were obtained:
[1] = target: T1, Cannabinoid receptor 1 (Homo sapiens, UniProt P21554); assay: Binding affinity to CB1 receptor (unknown origin)
[2] = target: T2, Cannabinoid receptor 2 (Homo sapiens, UniProt P34972); assay: Binding affinity to CB2 receptor (unknown origin)
T2 sequence (P34972 whole entry): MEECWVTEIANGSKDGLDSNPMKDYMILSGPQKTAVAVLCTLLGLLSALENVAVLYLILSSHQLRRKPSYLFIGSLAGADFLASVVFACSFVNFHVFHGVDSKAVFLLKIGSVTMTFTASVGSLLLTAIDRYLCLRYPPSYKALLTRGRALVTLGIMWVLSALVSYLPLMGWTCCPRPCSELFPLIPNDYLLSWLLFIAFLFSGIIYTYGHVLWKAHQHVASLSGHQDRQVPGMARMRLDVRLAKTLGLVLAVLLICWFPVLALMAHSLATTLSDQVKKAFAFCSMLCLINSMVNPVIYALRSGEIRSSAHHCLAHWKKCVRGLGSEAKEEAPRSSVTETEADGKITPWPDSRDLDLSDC

[3] = species on record: Homo sapiens; assay: Selectivity index, ratio of Ki for CB1 receptor (unknown origin) to Ki for CB2 receptor (unknown origin)
[4] = target: T1, Cannabinoid receptor 1; assay: Agonist activity at human CB1 receptor expressed in mouse AtT-20 cells co expressing GIRK by FLIPR assay; type: cell-based
[5] = species on record: Homo sapiens; assay: Selectivity index, ratio of EC50 for human CB1 receptor to Ki for human CB2 receptor
[6] = target: T2, Cannabinoid receptor 2; assay: Activity at CB2 receptor (unknown origin)
[7] = target: T2, Cannabinoid receptor 2; assay: Inhibition of CB2 receptor (unknown origin)
[8] = target: T2, Cannabinoid receptor 2; assay: Agonist activity at human CB2 receptor expressed in mouse AtT-20 cells co expressing GIRK by FLIPR assay; type: cell-based

T1 sequence (P21554 whole entry): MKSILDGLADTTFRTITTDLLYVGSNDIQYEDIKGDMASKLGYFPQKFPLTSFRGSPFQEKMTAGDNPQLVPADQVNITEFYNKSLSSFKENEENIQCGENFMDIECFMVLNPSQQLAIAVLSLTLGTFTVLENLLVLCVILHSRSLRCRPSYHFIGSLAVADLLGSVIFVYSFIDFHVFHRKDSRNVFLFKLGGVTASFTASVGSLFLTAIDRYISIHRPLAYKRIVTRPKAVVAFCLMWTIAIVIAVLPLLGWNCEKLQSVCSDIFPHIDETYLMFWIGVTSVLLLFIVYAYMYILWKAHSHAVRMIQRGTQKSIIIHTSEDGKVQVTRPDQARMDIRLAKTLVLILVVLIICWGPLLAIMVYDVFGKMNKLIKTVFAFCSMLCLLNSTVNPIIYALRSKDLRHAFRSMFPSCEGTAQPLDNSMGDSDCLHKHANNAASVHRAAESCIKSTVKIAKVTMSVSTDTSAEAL

**Q.** How did the Ki [1] turn out when `COc1cccc2c(=O)c(C(=O)NC34CC5CC(CC(C5)C3)C4)cn(CCOCC[18F])c12` was run?
**A.** > 10000 nM

**Q.** What about the Ki [2] of the same compound?
**A.** 1.2 nM

**Q.** For `COc1cccc2c(=O)c(C(=O)NC34CC5CC(CC(C5)C3)C4)cn(CCOCCF)c12`, which Ratio Ki ([3]; tested as the 18F-labelled form) is on record?
**A.** > 8330

**Q.** `CCOCCn1cc(C(=O)NC23CC4CC(CC(C4)C2)C3)c(=O)c2cccc(O[11CH3])c21` was tested. Which Ki [1] did it give?
**A.** > 10000 nM

**Q.** Which results are given for `CCCCCn1nc(C(=O)N[C@H](C(N)=O)C(C)C)c2ccccc21`?
**A.** EC50 [4]: 2.1 to 7.8 nM; Ratio EC50 [5]: 1.5 to 3.2

**Q.** Which Ratio Ki ([3]; tested as the 11C-labelled form) does the source give for `CCCc1sc(NC(=O)C23CC4CC(CC(C4)C2)C3)c(C(=O)OC)c1C` here?
**A.** 256

**Q.** For `CCOc1nc(NC2CCCC2)nc(N2CCN(CC[18F])CC2)n1`, which EC50 [6] is on record?
**A.** 40 nM

**Q.** For `CC(C)[C@H](NC(=O)c1nn(CCCCCF)c2ccccc12)C(N)=O`, which EC50 [4] is on record?
**A.** 2.1 to 7.8 nM

**Q.** What about the Ratio EC50 [5] of the same compound?
**A.** 1.5 to 3.2

**Q.** With `[2H]C([2H])([18F])Oc1nc(NCCc2ccc(F)cc2)nc(-c2ccc(Cl)c(C(C)(C)O)c2)n1` as the compound, how does the IC50 [7] read?
**A.** 1.4 nM

**Q.** With `CC(C)[C@H](NC(=O)c1nn(Cc2ccc(F)cc2)c2ccccc12)C(N)=O` as the compound, how does the EC50 [4] read?
**A.** 2.1 to 7.8 nM

**Q.** `CC(C)[C@H](NC(=O)c1nn(CC2CCCCC2)c2ccccc12)C(N)=O` was tested. Which EC50 [4] did it give?
**A.** 2.1 to 7.8 nM

**Q.** And the Ratio EC50 [5]?
**A.** 1.5 to 3.2

**Q.** What does the source list for `CCCCCn1cc(C(=O)c2ccccc2OC)c2ccccc21`?
**A.** EC50 [4]: 54 nM; EC50 [8]: 6.9 nM; Selectivity Index [5]: 7.8

**Q.** Which Ki [1] does the source give for `CCCc1sc(NC(=O)C23CC4CC(CC(C4)C2)C3)c(C(=O)O[11CH3])c1C` here?
**A.** 1100 nM

**Q.** And the Ki [2]?
**A.** 4.3 nM

**Q.** For `CCCCn1cc(C(=O)c2ccccc2OC)c2ccccc21`, which EC50 [4] is on record?
**A.** 178 nM

**Q.** What about the EC50 [8] of the same compound?
**A.** 4.5 nM

**Q.** And the Selectivity Index [5]?
**A.** 39.6
